Literature values as cited in US9510493B2, “Mixture of hydrofluoroolefin and fluoroketone for use as an insulation and/or ARC extinguishing medium and a gas insulated medium-voltage electrical device comprising same” (priority 2011, dated 2016).

Legend:
humans = details: average limit concentration, 8 hours per day for 5 days per week, without noxious effect
animal population = details: causing death of 50% of an animal population

Row | SMILES | occupational exposure limit OEL (humans) | lethal dose DL50 (animal population)
1 | F/C=C/C(F)(F)F [HFO-1234ze, trans-1,3,3,3-tetrafluoro-1-propene] | 1 000 ppm | > 200 000 ppm
2 | O=C(C(F)(F)F)C(F)(C(F)(F)F)C(F)(F)F [C5K, decafluoro-2-methylbutan-3-one] | 1 000 ppm | more than 200 000 ppm
